ChEMBL document CHEMBL2073970, “Expression cloning and functional characterization of the kidney cortex high-affinity proton-coupled peptide transporter” (Proc Natl Acad Sci U S A, 1996)

Molecular target: T1, Solute carrier family 15 member 2 (Rattus norvegicus) (UniProt Q63424)
T1 sequence (whole entry): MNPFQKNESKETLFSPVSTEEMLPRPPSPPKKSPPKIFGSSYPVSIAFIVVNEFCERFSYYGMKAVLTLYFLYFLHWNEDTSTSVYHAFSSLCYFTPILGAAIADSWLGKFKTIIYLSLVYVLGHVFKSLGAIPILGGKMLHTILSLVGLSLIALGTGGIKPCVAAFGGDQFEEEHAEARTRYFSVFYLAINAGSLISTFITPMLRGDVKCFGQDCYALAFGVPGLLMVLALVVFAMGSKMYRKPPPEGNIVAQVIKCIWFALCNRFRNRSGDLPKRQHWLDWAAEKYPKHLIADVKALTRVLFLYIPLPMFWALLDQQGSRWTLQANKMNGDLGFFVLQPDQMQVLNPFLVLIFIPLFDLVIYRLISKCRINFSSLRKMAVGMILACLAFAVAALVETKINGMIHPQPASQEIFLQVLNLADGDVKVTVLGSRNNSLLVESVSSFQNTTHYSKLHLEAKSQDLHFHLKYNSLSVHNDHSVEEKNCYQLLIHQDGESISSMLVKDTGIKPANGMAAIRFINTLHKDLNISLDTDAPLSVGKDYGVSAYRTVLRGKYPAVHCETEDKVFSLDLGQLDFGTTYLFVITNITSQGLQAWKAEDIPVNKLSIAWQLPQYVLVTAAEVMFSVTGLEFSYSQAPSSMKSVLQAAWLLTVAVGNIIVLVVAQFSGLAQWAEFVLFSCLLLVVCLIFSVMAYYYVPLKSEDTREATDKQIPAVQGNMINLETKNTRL
Test: TP_TRANSPORTER: inhibition of Cefadroxil uptake (Cefadroxil: 25 uM, Loracarbef: 5000uM) in Xenopus laevis oocytes
Type: functional, cell-based
Conditions: Oocyte

How did the Activity turn out when `N[C@@H](C(=O)N[C@@H]1C(=O)N2C(C(=O)O)=C(Cl)CC[C@H]12)c1ccccc1` was run?
The Activity was “inhibitor [15% (at a rough estimate) of control]”.
